Results as given in US20240133884A1, “COMPOSITIONS AND METHODS FOR DETECTING TRYPANOSOMA CRUZI INFECTION” (University of Georgia Research Foundation, Inc., priority 2022, published 2024).

System: T. cruzi (Brazil strain)
Experiment: In vivo killing time assay: mouse footpads, Luciferase-expressing T. cruzi
Set-up: species or system Trypanosoma cruzi
Conditions: mice, single oral dose 25 mg/kg (FIG. 1C)
Procedure: Cure assays: Male or female C57BL/6 mice were intraperitoneally infected with 10^4 trypomastigotes of the Brazil strain. Mouse infection was confirmed at 25-30 dpi by detection of CD8^+ T cells specific against the T. cruzi TSKb20 peptide in blood (Martin, et al., PLoS pathogens 2, e77 (2006)). Compounds resuspended in 1% carboxymethyl cellulose and 0.1% Tween 80, were administered daily by gavage at the specified concentrations. In order to optimally detect persistent infection, immune responses in the mice were suppressed by intraperitoneal injection of four doses of cyclophosphamide every 2-3 days (200 mg/kg/day), beginning one week after the end of therapeutic treatment. At the end of the immunosuppression regimen, peripheral blood was checked under light microscope for parasites and cultured in LDNT media (Bustamante, et al., The Journal of infectious diseases 209, 150-162 (2014)). […] In vivo killing time assays: C57BL/6 mice were infected with 2.5×10^5 Luciferase-expressing T. cruzi (Brazil strain) in the foot pads, and two days later one oral dose of AN14353 (25 mg/kg) was administered. The bioluminescent signal in the feet after i.p. injection of D-luciferin (PerkinElmer; 250 mg/kg) was measured in a Lumina II IVIS imager (PerkinElmer). […]

## Cc1c(C(=O)N[C@H](C(=O)OCc2ccc(F)c(F)c2)C(C)C)ccc2c1B(O)OC2 [AN14353]
  in vivo trypanocidal activity (bioluminescence of feet over 72 hrs): rapid in vivo trypanocidal activity
